In ChEMBL document CHEMBL5375999, “Discovery of a Dual Tubulin and Neuropilin-1 (NRP1) Inhibitor with Potent In Vivo Anti-Tumor Activity via Pharmacophore-based Docking Screening, Structure Optimization, and Biological Evaluation” (J Med Chem, 2023):
One block for each compound: values may come before it. Calls of active or inactive are those of the source. No cut-off for these calls is given here.

Legend:
[1] = target: Tubulin (Homo sapiens) (UniProt P68371+Q9H4B7+P0DPH7+P68366+Q13509+Q71U36+P04350+Q3ZCM7+P07437+P68363+Q9BQE3+Q6PEY2+Q13885+Q9BVA1+Q9BUF5); test: Inhibition of tubulin polymerization (unknown origin) at 12 uM by spectrophotometric analysis relative to control; type: protein-complex assay
[2] = target: Tubulin; test: Inhibition of tubulin polymerization (unknown origin) by spectrophotometric analysis; type: protein-complex assay, Homo sapiens
[3] = system: PC-3; test: Cytotoxicity against human PC-3 cells assessed as inhibition of cell viability incubated for 48 hrs by MTT assay; type: functional, cell-based; conditions: PC-3, 48 h
[4] = Cytotoxicity against human PrEC cells assessed as inhibition of cell viability incubated for 48 hrs by MTT assay; type: toxicity, cell-based
[5] = target: Neuropilin-1 (Homo sapiens) (UniProt O14786); test: Inhibition of [125I]-VEGF-A165 binding to NRP1 (unknown origin) transfected in HUVECs incubated for 2 hrs by plate reader analysis; conditions: HUVEC
Target sequence in this assay (O14786 whole entry, looked up): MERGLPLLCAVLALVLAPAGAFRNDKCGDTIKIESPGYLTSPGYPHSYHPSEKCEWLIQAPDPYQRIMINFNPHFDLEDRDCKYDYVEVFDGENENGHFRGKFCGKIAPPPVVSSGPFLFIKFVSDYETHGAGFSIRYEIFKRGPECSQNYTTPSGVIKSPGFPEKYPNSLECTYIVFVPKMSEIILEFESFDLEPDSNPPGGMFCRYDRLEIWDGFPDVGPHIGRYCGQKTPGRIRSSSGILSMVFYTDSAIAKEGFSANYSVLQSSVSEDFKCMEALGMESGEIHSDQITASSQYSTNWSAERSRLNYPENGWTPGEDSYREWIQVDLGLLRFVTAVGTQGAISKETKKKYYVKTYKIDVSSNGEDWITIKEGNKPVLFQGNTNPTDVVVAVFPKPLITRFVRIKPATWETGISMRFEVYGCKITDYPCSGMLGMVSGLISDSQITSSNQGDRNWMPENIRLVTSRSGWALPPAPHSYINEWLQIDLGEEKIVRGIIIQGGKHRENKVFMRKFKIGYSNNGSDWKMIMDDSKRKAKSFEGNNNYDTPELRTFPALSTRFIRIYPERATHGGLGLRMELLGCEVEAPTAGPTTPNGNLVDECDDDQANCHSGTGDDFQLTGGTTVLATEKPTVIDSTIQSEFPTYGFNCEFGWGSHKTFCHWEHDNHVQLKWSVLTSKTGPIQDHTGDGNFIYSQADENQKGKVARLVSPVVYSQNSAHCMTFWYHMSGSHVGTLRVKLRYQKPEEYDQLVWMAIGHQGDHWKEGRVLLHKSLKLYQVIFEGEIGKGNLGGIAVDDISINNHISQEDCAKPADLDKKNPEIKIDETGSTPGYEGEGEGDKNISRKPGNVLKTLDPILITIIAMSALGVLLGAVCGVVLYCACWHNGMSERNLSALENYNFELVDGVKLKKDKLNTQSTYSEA

[6] = target: Neuropilin-1 (Homo sapiens) (UniProt O14786); test: Inhibition of [125I]-VEGF-A165 binding to NRP1 (unknown origin) transfected in HUVECs at 12 uM incubated for 2 hrs by plate reader analysis relative to control; type: cell-based; conditions: HUVEC
Target sequence in this assay (O14786 whole entry): as the sequence (O14786 whole entry, looked up) above

Structure (SMILES): COc1ccc(/C=C\c2cc(OC)c(OC)c(OC)c2)cc1O [COMBRETASTATIN A4]
IC50 [3]: 0.06 µM | IC50 at 48 h [4]: 0.08 µM | inhibition [5]: inactive

Structure (SMILES): COC(=O)[C@H](CCCNC(=N)N)NC(=O)CCCC(=O)Nc1cc(/C=C\c2cc(OC)c(OC)c(OC)c2)ccc1OC
inhibition [5]: inactive | IC50 [2]: 7.96 µM

Structure (SMILES): Cc1ccc(S(=O)(=O)N[C@@H](CCCNC(=N)N)C(=O)O)cc1
inhibition [6]: 82%

Structure (SMILES): N=C(N)NCC(C[C@H](NCc1ccccc1)C(=O)O)[N+](=O)[O-] (stereo partly drawn)
inhibition [6]: 60%

Structure (SMILES): COC(=O)[C@H](CCCNC(=N)N)NC(=O)/C=C/C(=O)Nc1cc(/C=C\c2cc(OC)c(OC)c(OC)c2)ccc1OC
inhibition [5]: inactive | IC50 [2]: 4.14 µM

Structure (SMILES): N=C(N)NCCC[C@H](NC(=O)c1sccc1NS(=O)(=O)c1cccc2nsnc12)C(=O)O
inhibition [6]: 87%

Structure (SMILES): COC(=O)[C@H](CCCNC(=N)N)NC(=O)CCCCC(=O)Nc1cc(/C=C\c2cc(OC)c(OC)c(OC)c2)ccc1OC
inhibition [5]: inactive | IC50 [2]: 9.34 µM

Structure (SMILES): N=C(N)NCCC[C@H](NC(=O)c1ccccc1)C(=O)O
inhibition [6]: 79%

Structure (SMILES): COC(=O)[C@H](CCCNC(=N)N)NC(=O)CCCCCCC(=O)Nc1cc(/C=C\c2cc(OC)c(OC)c(OC)c2)ccc1OC
inhibition [5]: inactive

Second part, the compound after the results:

inhibition [1]: 52%
Structure (SMILES): COc1ccc2c(c1)OC(c1cc(OC)c(OC)c(OC)c1)CC2=O (stereo not drawn)

inhibition [1]: 15%
Structure (SMILES): COc1cc(C2OC2C(=O)c2ccccc2)cc(OC)c1OC (stereo not drawn)

IC50 [2]: 1.53 µM
Structure (SMILES): COc1ccc(/C=C\c2cc(OC)c(OC)c(OC)c2)cc1NC(=O)/C=C/C(=O)N[C@@H](CCCNC(=N)N)C(=O)O

inhibition [1]: 48%
Structure (SMILES): COc1cc([C@@H]2CC(=O)c3cnc(N4CCN(CCO)CC4)nc3C2)cc(OC)c1OC

inhibition [1]: 21%
Structure (SMILES): COc1cc(-c2cc(C(F)(F)F)n3ncc(C(=O)NCC(C)C)c3n2)cc(OC)c1OC

IC50 [2]: 5.57 µM
Structure (SMILES): COc1ccc(/C=C\c2cc(OC)c(OC)c(OC)c2)cc1NC(=O)CCCC(=O)N[C@@H](CCCNC(=N)N)C(=O)O

inhibition [1]: 69%
Structure (SMILES): COc1cc2c(cc1OC)C(c1cc(OC)c(OC)c(OC)c1)OCC2 (stereo not drawn)

inhibition [1]: 63%
Structure (SMILES): COc1cc(C(=O)/C=C/c2c[nH]c3ccc(Br)cc23)cc(OC)c1OC

inhibition [1]: 45%
Structure (SMILES): COc1cc(C(=O)/C=C/Nc2cccc(C)c2)cc(OC)c1OC

IC50 [2]: 7.15 µM
Structure (SMILES): COc1ccc(/C=C\c2cc(OC)c(OC)c(OC)c2)cc1NC(=O)CCCCC(=O)N[C@@H](CCCNC(=N)N)C(=O)O

inhibition [1]: 71%
Structure (SMILES): COc1cc(O)c(/C=C/C(=O)c2cc(OC)c(OC)c(OC)c2)c(OC)c1

inhibition [6]: 47% | inhibition [1]: 64%
Structure (SMILES): COc1cc(C(O)c2cc3c(cc2CO)OCO3)cc(OC)c1OC (stereo not drawn)

inhibition [1]: 28%
Structure (SMILES): COc1cc(-c2cc(-n3c(S)nc4ccccc4c3=O)[nH]n2)cc(OC)c1OC
